Measurements taken from patent US8114854B2, “Crystalline forms of gemcitabine amide prodrug, compositions and use thereof” (Eli Lilly and Company, priority 2006, dated 2012).

What was measured:
[1] = result of first pass metabolism; cited from earlier work
[2] = tested on: mice; conditions: comparable exposures via intravenous dosing; cited from earlier work
[3] = tested on: mice; conditions: single oral (gavage) dose of 167, 333, or 500 mg/kg; cited from earlier work
[4] = Monkey Pharmacokinetics Assay; format: in vivo; conditions: administered intravenously to cynomolgus monkeys
Experimental: Monkey Pharmacokinetics Assay
The pharmacokinetic profiles of gemcitabine and a 1-(2,2-difluoro-2-deoxy-β-D-ribofuranosyl)-4-(2-propyl-1-oxopentyl)aminopyrimidin-2-one are assessed in cynomolgus monkeys following oral and intravenous administration in a crossover design. Compounds are administered at doses selected to contain approximately 10 mg/kg of gemcitabine. Blood samples are collected into EDTA-treated tubes containing tetrahydrouridine (0.5 mM final concentration in blood) at designated intervals for up to 48 hours. Animals are pretreated with ranitidine (intravenous, 5 mg/kg) in the oral dosing periods. Plasma is isolated by centrifugation and frozen prior to analysis. Plasma concentrations of gemcitabine and 1-(2,2-difluoro-2-deoxy-β-D-ribofuranosyl)-4-(2-propyl-1-oxopentyl)aminopyrimidin-2-one are determined by LC/MS/MS analysis. Pharmacokinetic parameters are determined using WinNonlin software (Pharsight Corp., Mountain View, Calif.).

[5] = tested on: Male and female beagle dogs; experiment: 7-Day Dog Study (toxicology); format: in vivo; conditions: oral via capsule once daily for 7 days
Experimental: To evaluate the toxicity profile of 1-(2,2-difluoro-2-deoxy-β-D-ribofuranosyl)-4-(2-propyl-1-oxopentyl)aminopyrimidin-2-one when administered to Beagle dogs for 7 days, and to determine the plasma concentrations of 1-(2,2-difluoro-2-deoxy-β-D-ribofuranosyl)-4-(2-propyl-1-oxopentyl)aminopyrimidin-2-one and metabolites gemcitabine HCl and deoxydifluorouridine after 1 or 7 doses, a 7-day dog study is conducted.
Male and female beagle dogs 6-48 months of age are dosed orally via capsule with 1-(2,2-difluoro-2-deoxy-β-D-ribofuranosyl)-4-(2-propyl-1-oxopentyl)aminopyrimidin-2-one. A range of doses is selected in an effort to determine a maximum tolerated dose and dose limiting toxicity. A dose volume of 1 mL/kg is used and doses are administered once daily.
Clinical signs, body weight, food consumption, body temperature, hematology (including coagulation), clinical chemistry, urinalysis, plasma concentrations of 1-(2,2-difluoro-2-deoxy-β-D-ribofuranosyl)-4-(2-propyl-1-oxopentyl)aminopyrimidin-2-one and its metabolites gemcitabine HCl and deoxydifluorouridine, and pathology (including gross pathology, organ weights, and histopathology) were evaluated.

[6] = pH Chemical Stability Assay; format: physicochemical; conditions: pH range 1 to 8, after four hours, 40° C., 100 mcg/mL in buffers
Experimental: pH Chemical Stability Assay
The pH chemical stability is assessed using a semi-automated HPLC technique. Samples of 1-(2,2-difluoro-2-deoxy-β-D-ribofuranosyl)-4-(2-propyl-1-oxopentyl)aminopyrimidin-2-one are prepared at 100 mcg/mL in five buffers representing the pH range throughout the gastrointestinal tract (pH1-pH8). Samples are loaded onto an HPLC autosampler incubated at 40° C. Samples are repeatedly injected on the HPLC at hourly intervals for up to 24 hours with an HPLC column that separates a compound of formula I from gemcitabine. The peak area of 1-(2,2-difluoro-2-deoxy-β-D-ribofuranosyl)-4-(2-propyl-1-oxopentyl)aminopyrimidin-2-one is monitored by UV detection over time and are compared to initial peak areas to determine stability.

[7] = tested on: Female CD-1 mice; experiment: 4-Day Mouse Screen (toxicology); format: in vivo; conditions: oral gavage once daily for 4 days, molar equivalent of 8-mg/kg gemcitabine
Experimental: To evaluate the toxicity produced by orally administered 1-(2,2-difluoro-2-deoxy-β-D-ribofuranosyl)-4-(2-propyl-1-oxopentyl)aminopyrimidin-2-one when administered daily to female […] mice for 4 days, the gastrointestinal toxicity profiles of 1-(2,2-difluoro-2-deoxy-β-D-ribofuranosyl)-4-(2-propyl-1-oxopentyl)aminopyrimidin-2-one is compared with the historical results for gastrointestinal toxicity when gemcitabine is administered orally at 8 mg/kg in a 4-day mouse study.
Female CD-1 mice 5-8 weeks of age are dosed with 1-(2,2-difluoro-2-deoxy-β-D-ribofuranosyl)-4-(2-propyl-1-oxopentyl)aminopyrimidin-2-one by oral gavage. A dose level is chosen to approximate a molar equivalent of 8-mg/kg gemcitabine. A dose volume of 10 mL/kg is used and doses are administered once daily on 4 consecutive days. Necropsy is performed approximately 5-8 hours following the 4th dose.
Clinical signs, clinical chemistry, gross pathology, and limited histopathology (ileum, jejunum, and liver) are evaluated.

[8] = Small Intestine Homogenate Assay (all species); format: in vitro ADME, CD-1 mice, beagle dogs, cynomolgus monkeys, and humans; conditions: 100 uM, SIH 2.5-5 mg/mL protein, pH 7.5
Experimental: (§1) Small Intestine Homogenate Assay
(§2) To determine the stability of 1-(2,2-difluoro-2-deoxy-β-D-ribofuranosyl)-4-(2-propyl-1-oxopentyl)aminopyrimidin-2-one to enzymatic hydrolysis in the intestine, crude homogenates of small intestinal epithelial cells are prepared from sections of the upper small intestine from CD-1 mice, beagle dogs, cynomolgus monkeys, and humans. Mouse and dog homogenates are prepared from freshly collected tissue, while monkey and human homogenates are prepared from previously frozen tissues. Cells are gently scraped from intestinal segments, pooled, and homogenized in 50 mM acetate buffer using Polytron (PT-10-85). Protein concentrations are determined by standard spectrophotometric techniques. The prepared homogenates are store at −70° C. before using.
(§3) The hydrolytic rates of 1-(2,2-difluoro-2-deoxy-β-D-ribofuranosyl)-4-(2-propyl-1-oxopentyl)aminopyrimidin-2-one in small intestinal homogenates (SIH) is determined by incubating a compound of formula I (100 uM) with SIH (2.5-5 mg/mL of total protein) in acetate at pH 7.5 for up to 6 hours. Concentrations of gemcitabine released via hydrolysis is determined by LC/MS analysis after the reaction is quenched with acetonitrile. […]

[9] = Liver S9 Hydrolysis Assay, monkey; format: in vitro ADME, cynomolgus monkey; conditions: monkey liver S9, 6 hour incubation
Experimental: (§4) Liver S9 Hydrolysis Assay
(§5) Hydrolysis of 1-(2,2-difluoro-2-deoxy-β-D-ribofuranosyl)-4-(2-propyl-1-oxopentyl)aminopyrimidin-2-one by liver enzymes is determined by liver hydrolysis assay. Liver homogenates are prepared from CD-1 mouse, beagle dog, cynomolgus monkey, and human livers. Liver tissues are cut into small pieces using scissors, then, homogenized in 50 mM acetate buffer using Polytron (PT-10-85) for 1 min. Post-mitochondrial (S9) fractions are prepared from each by ultracentrifugation at 9,000×g at 4° C. for 10 min. Mouse, dog and monkey liver S9 fractions are prepared from freshly collected tissues, while human liver S9 are prepared from previously frozen tissue. After centrifugation, the supernatant is collected and protein concentrations are determined by standard spectrophotometric techniques. The prepared S9 fractions are store at −70° C. before using.
(§6) The hydrolytic rates of 1-(2,2-difluoro-2-deoxy-β-D-ribofuranosyl)-4-(2-propyl-1-oxopentyl)aminopyrimidin-2-one in liver S9 is determined by incubating compound (10 uM) with S9 (2 mg/mL of total protein) in phosphate buffered saline at pH 8.0 for up to 6 hours. Concentrations of gemcitabine released via hydrolysis are determined by LC/MS analysis after the reaction is quenched with acetonitrile. […]

[10] = Mouse Pharmacokinetics; format: in vivo, male CD-1 mice
Experimental: The pharmacokinetic profiles of gemcitabine and 1-(2,2-difluoro-2-deoxy-β-D-ribofuranosyl)-4-(2-propyl-1-oxopentyl)aminopyrimidin-2-one are assessed in male CD-1 mice following oral administration at doses selected to contain approximately 10 mg/kg of gemcitabine. Designated animals (n=3/time point/compound) are sacrificed at 0.08, 0.25, 0.5, 1, 2, and 6 hours after dosing, and systemic blood samples are collected into EDTA-treated tubes containing tetrahydrouridine (0.5 mM final concentration in blood) to inhibit further metabolism of gemcitabine. An additional 3 animals are sacrificed at 0.08 hours for collection of hepatic portal blood. Plasma is isolated by centrifugation and frozen prior to analysis. Plasma concentrations of gemcitabine and prodrugs are determined by LC/MS/MS analysis. Pharmacokinetic parameters are calculated using WinNonlin software (Pharsight Corp., Mountain View, Calif.). Pharmacokinetic parameters of each prodrug are compared to those determined from administration of oral gemcitabine hydrochloride in a similar study design.

[11] = tested on: Male and female CD-1 mice; experiment: 14 Day Mouse Study (toxicology); format: in vivo
Experimental: A 14-Day Mouse Study is conducted to evaluate whether 1-(2,2-difluoro-2-deoxy-β-D-ribofuranosyl)-4-(2-propyl-1-oxopentyl)aminopyrimidin-2-one produces adverse effects in mice following 14 days of oral gavage dosing and to determine the plasma concentrations of 1-(2,2-difluoro-2-deoxy-β-D-ribofuranosyl)-4-(2-propyl-1-oxopentyl)aminopyrimidin-2-one and its metabolites gemcitabine HCl and deoxydifluorouridine after 1 or 14 doses.
Male and female CD-1 mice 9-12 weeks of age are dosed with 1-(2,2-difluoro-2-deoxy-β-D-ribofuranosyl)-4-(2-propyl-1-oxopentyl)aminopyrimidin-2-one drug by oral gavage. A range of doses is selected in an effort to determine a maximum tolerated dose and dose limiting toxicity. A dose volume of 10 mL/kg is used and doses are administered once daily.
Clinical signs, body weight, food consumption, hematology, clinical chemistry, plasma concentrations of 1-(2,2-difluoro-2-deoxy-β-D-ribofuranosyl)-4-(2-propyl-1-oxopentyl)aminopyrimidin-2-one and metabolites gemcitabine HCl and deoxydifluorouridine, and pathology (including gross pathology, organ weights, and histopathology) are evaluated.

[12] = Small Intestine Homogenate Assay, human; format: in vitro ADME, humans; conditions: 6 hour incubation
Experimental: as §1, §2, §3

[13] = Liver S9 Hydrolysis Assay (all species); format: in vitro ADME, CD-1 mouse, beagle dog, cynomolgus monkey, and human; conditions: all species described; 10 uM, S9 2 mg/mL protein, pH 8.0
Experimental: as §4, §5, §6

[14] = Liver S9 Hydrolysis Assay, human; format: in vitro ADME; conditions: human liver S9, 6 hour incubation
Experimental: as §4, §5, §6

[15] = tested on: HCT-116 colon tumor cells; experiment: In Vivo Assay, HCT-116 colon tumor xenograft; conditions: oral gavage
Experimental: HCT-116 colon tumor cells are grown in vitro under standard tissue culture conditions, harvested, washed, and 5×10^6 cells (1:1 suspension in Matrigel, Collaborative Biomedical Products, Inc) are injected subcutaneously in the rear flank of female nude mice (Charles River, CD1 nu/nu, 24-27 g, irradiated with 450 Rads within 24 h of implantation). Tumors are allowed to grow to ˜100 mm^3 before initiation of therapy. Vehicle control, 1-(2,2-difluoro-2-deoxy-β-D-ribofuranosyl)-4-(2-propyl-1-oxopentyl)aminopyrimidin-2-one or gemcitabine-HCl at various dose levels are administered to the mice by oral gavage (10 ml/kg volume) at the times indicated in the individual experiments. Compounds are administered either daily for fourteen days, every other day for a total of seven doses, or every third day for a total of four doses. […] Tumor size is determined by caliper measurements and tumor volume (mm^3) is estimated from the formula l×w^2×0.536, where l is the larger and w is the smaller of perpendicular diameters. All data (tumor measurements and animal weights) are captured twice-weekly beginning with the start of therapy and analyzed using a computer based tumor measurement system.

[16] = Small Intestine Homogenate Assay, monkey; format: in vitro ADME, cynomolgus monkeys; conditions: 6 hour incubation
Experimental: as §1, §2, §3

Row | Compound | oral bioavailability [1] | death or gastrointestinal toxicity [2] | adverse dose-limiting intestinal lesions [3] | hydrolysis in vivo to release gemcitabine [4] | hematotoxicity and other toxicities, including GI toxicity [5] | degraded to gemcitabine [6] | severity of atrophic intestinal changes or enteropathy versus gemcitabine HCl [7] | rate of hydrolysis in small intestine homogenate [8] | total compound converted to gemcitabine [9] | concentrations of intact prodrug in hepatic portal plasma ([10]; 0.08 hours after oral dosing, CD-1 mice) | hydrolysis in vivo to release gemcitabine ([10]; administered orally to CD-1 mice, dose containing approximately 10 mg/kg of gemcitabine) | plasma exposure to gemcitabine compared to direct oral administration of gemcitabine hydrochloride ([10]; oral, CD-1 mice) | systemic gemcitabine exposure from the prodrug versus gemcitabine HCl on a molar equivalent basis ([11]; 14-day oral gavage study) | enteropathy versus gemcitabine HCl on a molar equivalent basis ([11]; 14 days of oral gavage dosing) | total compound converted to gemcitabine [12] | hydrolysis in liver S9 [13] | total compound converted to gemcitabine [14] | overall toxicity versus equivalent amount of gemcitabine-HCl ([15]; HCT-116 tumor-bearing nude mice) | antitumor efficacy versus equivalent dose of gemcitabine-HCl ([15]; HCT-116 tumors in nude mice) | total compound converted to gemcitabine [16]
1 | Nc1ccn([C@@H]2O[C@H](CO)[C@@H](O)C2(F)F)c(=O)n1 [gemcitabine, 2′,2′-difluoro-2′-deoxycytidine] | poor oral bioavailability | did not result in death or gastrointestinal toxicity | moderate-to-marked loss of mucosal epithelium (atrophic enteropathy) | – | – | – | – | – | – | – | – | – | – | – | – | – | – | – | – | –
2 | CCCC(CCC)C(=O)Nc1ccn([C@@H]2O[C@H](CO)[C@@H](O)C2(F)F)c(=O)n1 [1-(2,2-difluoro-2-deoxy-β-D-ribofuranosyl)-4-(2-propyl-1-oxopentyl)aminopyrimidin-2-one] | – | – | – | extensively hydrolyzed | consistent with what has been previously described for parenteral gemcitabine | Less than 25% | significant reduction | slow rate of hydrolysis | approximately 35% | relatively high concentrations | extensively hydrolyzed | increased | approximately twice | less enteropathy | less than 3% | hydrolyzed | approximately 35% | less overall toxicity | comparable | less than 3%
